The text below walks through data of patent publication US11884675B2, “Heterocyclic compounds as triggering receptor expressed on myeloid cells 2 agonists and methods of use” (AMGEN INC., priority 2020, dated 2024).

Broadly, the EC50 is the concentration that produces a half-maximal response. The low end stands for higher potency in that assay, the high end for lower potency in that assay.

The target in this assay is hTREM2 (Homo sapiens, UniProt Q9NZC2). In words: TREM2 agonist potency by Syk phosphorylation (AlphaLisa) in HEK293T-hTREM2 cells, used for Examples 306-429. It is filed as cell-based. Also on record: expressed in transfected cells; host or cells: HEK293T (HEK293T-hTREM2 cells). The conditions noted are these: HEK293 Cells. On the procedure:
In vitro Measurement of Triggering Receptor Expressed on Myeloid Cells 2 activity using cellular phosphorylation of Spleen Tyrosine Kinase (“Syk”) Assays used for Examples 306-429
Measurement of TREM2 agonist potency was done using a HEK cell line expressing human TREM2 and DAP12 (HEK293T-hTREM2 cells). Binding of small molecules to, and activation of, TREM2 increases the phosphorylation of Syk. The resultant levels of Syk phosphorylation were measured using a commercial AlphaLisa reagent kit. To perform the assay, HEK-hTREM2 cells were plated at 14,000 cells per well in a 384 well plate, in 25 μL, of complete growth media and incubated at 37° C., 5% CO2 for 20-24 hours. Prior to the assay, test compounds were diluted in the 384 well plates in assay buffer and allowed to equilibrate for 30 minutes. Growth media was removed from cell plates by inversion on blotting paper, and 25 μL of test compounds in assay buffer was added to cells. Cells were incubated for 45 minutes at room temperature. After 45 minutes, assay buffer was removed and 10 μL of lysis buffer was added. Plates were shaken for 20 minutes at 350 RPM at room temperature. After complete lysis, AlphaLisa reagents were added to the lysate, and fluourescence intensity was measured using a Perkin Elmer Envision plate reader. Intensities were used to generate a standard curve, and % activation was calculated. Curve fitting was performed using Prism v9 software, log(agonist) vs response-variable slope (four parameters), and EC50s were calculated from the curve fit.
The results presented in Table 20 have been generated with the in vitro assay described above for Examples 306-429. This assay may be used to test any of the compounds described herein to assess and characterize a compound's ability to act as an agonist of TREM2.

Some results are limits rather than exact numbers.

Chain of hTREM2 (Q9NZC2 19-230): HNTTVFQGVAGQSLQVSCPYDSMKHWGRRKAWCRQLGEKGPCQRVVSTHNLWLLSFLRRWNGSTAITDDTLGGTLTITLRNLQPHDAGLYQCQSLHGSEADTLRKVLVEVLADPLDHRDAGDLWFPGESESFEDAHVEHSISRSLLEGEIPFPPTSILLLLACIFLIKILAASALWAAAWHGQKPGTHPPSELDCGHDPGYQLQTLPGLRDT
Chain of hTREM2 (O43914 22-113 partner): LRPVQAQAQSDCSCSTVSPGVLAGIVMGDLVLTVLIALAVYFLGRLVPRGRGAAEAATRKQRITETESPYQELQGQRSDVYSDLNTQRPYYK

For `Cc1cc(C2CC(c3cc4nc(C)c(C)cc4c(-c4ccc(Cl)cc4F)n3)CCO2)ccn1` (stereo not drawn) [Example 327, 5-(4-chloro-2-fluorophenyl)-2,3-dimethyl-7-(2-(2-methylpyridin-4-yl)tetrahydro-2H-pyran-4-yl)-1,6-naphthyridine], the concentration for a half-maximal effect (EC50) was no more than 50 nM.
The result for `Cc1nc2cc(N3C[C@@H](C)O[C@@H](c4cnn(C5CC5)c4)C3)nc(-c3ccc(F)cc3F)c2nc1C` (racemic) [Example 358, 2-(1-cyclopropyl-1H-pyrazol-4-yl)-4-(5-(2,4-difluorophenyl)-2,3-dimethylpyrido[3,4-b]pyrazin-7-yl)-6-methylmorpholine] reads no more than 50 nM; that for `Cc1nc2cc(N3C[C@@H](c4cnn(C5CC5)c4)O[C@@H](C)C3)nc(-c3ccc(F)cc3F)c2nc1C` [Example 398, (2R,6S)-2-(1-cyclopropyl-1H-pyrazol-4-yl)-4-(5-(2,4-difluorophenyl)-2,3-dimethylpyrido[3,4-b]pyrazin-7-yl)-6-methylmorpholine], no more than 50 nM.
The result for `Cc1cnc2c(C34CC(C(F)(F)F)(C3)C4)nc([C@H]3CCO[C@@H](c4cnn(C5CC5)c4)C3)cc2n1` (racemic) [Example 386, 2-methyl-7-[2-(1-cyclopropylpyrazol-4-yl)tetrahydropyran-4-yl]-5-[3-(trifluoromethyl)-1-bicyclo[1.1.1]pentanyl]pyrido[3,4-b]pyrazine] reads no more than 50 nM.
Turning to `Cc1nc2nc([C@@H]3CCO[C@@H](c4cnn(C5CC5)c4)C3)nc(C34CC(C(F)(F)F)(C3)C4)c2nc1C` (stereo in doubt) [Example 365, 2-(2-(1-cyclopropyl-1H-pyrazol-4-yl)tetrahydro-2H-pyran-4-yl)-6,7-dimethyl-4-(3-(trifluoromethyl)bicyclo[1.1.1]pentan-1-yl)pteridine], the concentration for a half-maximal effect (EC50) lay within 50 to 500 nM.
The result for `Cc1cc([C@H]2C[C@@H](c3nc(-c4ccc(C(F)(F)F)nc4)c4nc(C)c(C)nc4n3)CCO2)ccn1` (racemic) [Example 309, 6,7-dimethyl-2-(2-(2-methylpyridin-4-yl)tetrahydro-2H-pyran-4-yl)-4-(6-(trifluoromethyl)pyridin-3-yl)pteridine] reads 50 to 500 nM; that for `Cc1nc2cc([C@H]3C[C@@H](C)O[C@@H](c4cnn(C5CC5)c4)C3)nc(-c3ccc(F)cc3F)c2nc1C` [Example 380, 7-[(2R,4S,6R)-2-(1-cyclopropylpyrazol-4-yl)-6-methyl-tetrahydropyran-4-yl]-5-(2,4-difluorophenyl)-2,3-dimethyl-pyrido[3,4-b]pyrazine], no more than 50 nM; that for `Cc1cc([C@@H]2CN(c3nc(C45CC(C(F)(F)F)(C4)C5)c4ncc(C)nc4n3)CCO2)ccn1` [Example 353, (R)-4-(7-methyl-4-(3-(trifluoromethyl)bicyclo[1.1.1]pentan-1-yl)pteridin-2-yl)-2-(2-methylpyridin-4-yl)morpholine], 50 to 500 nM.
The molecule `Cc1ccc2c(C(C)C)nc([C@H]3C[C@@H](C)O[C@@H](c4cnn(C5CC5)c4)C3)nc2n1` [Example 429, 2-((2R,4S,6R)-2-(1-cyclopropyl-1H-pyrazol-4-yl)-6-methyltetrahydro-2H-pyran-4-yl)-4-isopropyl-7-methylpyrido[2,3-d]pyrimidine] had an EC50 of 500 to 3000 nM.
As to `Cc1nc2cc(N3C[C@@H](C)O[C@@H](c4cnn(C5CC5)c4)C3)nc(-c3ccc(F)cc3F)c2nc1C` [Example 403, (2S,6R)-2-(1-cyclopropyl-1H-pyrazol-4-yl)-4-(5-(2,4-difluorophenyl)-2,3-dimethylpyrido[3,4-b]pyrazin-7-yl)-6-methylmorpholine], the EC50 lay in the range of 50 to 500 nM.
To `Cc1ccc2c(-c3ccc(F)cc3F)nc([C@H]3C[C@@H](C)O[C@@H](c4cnn(C5CC5)c4)C3)nc2n1` [Example 416, 2-((2R,4S,6R)-2-(1-cyclopropyl-1H-pyrazol-4-yl)-6-methyltetrahydro-2H-pyran-4-yl)-4-(2,4-difluorophenyl)-7-methylpyrido[2,3-d]pyrimidine] belongs 50 to 500 nM; to `COc1cc(C2CN(c3nc(-c4ccc(Cl)cc4F)c4nc(C)c(C)nc4n3)CCO2)ccn1` (stereo not drawn) [Example 314, 4-(4-(4-chloro-2-fluorophenyl)-6,7-dimethylpteridin-2-yl)-2-(2-methoxypyridin-4-yl)morpholine], no more than 50 nM.
The result for `Cc1cnc2c(-c3ccc(C(F)(F)F)nc3)nc(N3CCOC(c4cnn(C5CC5)c4)C3)cc2n1` (stereo not drawn) [Example 340, 2-(1-cyclopropyl-1H-pyrazol-4-yl)-4-(2-methyl-5-(6-(trifluoromethyl)pyridin-3-yl)pyrido[3,4-b]pyrazin-7-yl)morpholine] reads 50 to 500 nM; that for `Cc1nc2cc(N3C[C@@H](C)O[C@@H](c4cnn(C5CC5)c4)C3)nc(C34CC(C(F)(F)F)(C3)C4)c2nc1C` (racemic) [Example 379, 2-(1-cyclopropylpyrazol-4-yl)-4-[2,3-dimethyl-5-[3-(trifluoromethyl)-1-bicyclo[1.1.1]pentanyl]pyrido[3,4-b]pyrazin-7-yl]-6-methyl-morpholine], 50 to 500 nM; that for `Cc1nc2nc(N3C[C@H](C)O[C@@H](c4cnn(C5CC5)c4)C3)nc(-c3ccc(Cl)cc3F)c2nc1C` (racemic) [Example 372, 4-(4-(4-chloro-2-fluorophenyl)-6,7-dimethylpteridin-2-yl)-2-(1-cyclopropyl-1H-pyrazol-4-yl)-6-methylmorpholine], no more than 50 nM.
To `Cc1cc([C@@H]2C[C@H](c3nc(-c4cc(F)c(Cl)c(F)c4)c4nc(C)c(C)nc4n3)CCO2)ccn1` (racemic) [Example 389, 4-(4-chloro-3,5-difluoro-phenyl)-6,7-dimethyl-2-[2-(2-methyl-4-pyridyl)tetrahydropyran-4-yl]pteridine] belongs no more than 50 nM; to `Cc1nc2nc(C3CCOC(c4cnn(C5CC5)c4)C3)cc(-c3ccc(Cl)cc3F)c2nc1C` (stereo not drawn) [Example 402, 8-(4-chloro-2-fluorophenyl)-6-(2-(1-cyclopropyl-1H-pyrazol-4-yl)tetrahydro-2H-pyran-4-yl)-2,3-dimethylpyrido[2,3-b]pyrazine], no more than 50 nM; to `Cc1cnc2c(-c3ccc(F)cc3F)nc([C@H]3C[C@@H](C)O[C@@H](c4cnn(C5CC5)c4)C3)nc2n1` [Example 415, 2-((2R,4S,6R)-2-(1-cyclopropyl-1H-pyrazol-4-yl)-6-methyltetrahydro-2H-pyran-4-yl)-4-(2,4-difluorophenyl)-7-methylpteridine], 50 to 500 nM.
Molecule `Cc1cc([C@H]2C[C@H](c3cc4nc(C)c(C)nc4c(-c4ccc(F)cc4F)n3)CCO2)ccn1` [Example 331, 5-(2,4-difluorophenyl)-2,3-dimethyl-7-((2R,4R)-2-(2-methylpyridin-4-yl)tetrahydro-2H-pyran-4-yl)pyrido[3,4-b]pyrazine] gave an EC50 of 500 to 3000 nM.
The result for `Cc1cc([C@@H]2CN(c3nc(-c4cc(F)c(Cl)cc4F)c4nc(C)c(C)nc4n3)CCO2)ccn1` [Example 391, (2R)-4-[4-(4-chloro-2,5-difluoro-phenyl)-6,7-dimethyl-pteridin-2-yl]-2-(2-methyl-4-pyridyl)morpholine] reads no more than 50 nM; that for `Cc1cc([C@H]2C[C@@H](c3nc(-c4ccc(Cl)c(F)c4F)c4nc(C)c(C)nc4n3)CCO2)ccn1` [Example 397, 4-(4-chloro-2,3-difluorophenyl)-6,7-dimethyl-2-((2R,4S)-2-(2-methylpyridin-4-yl)tetrahydro-2H-pyran-4-yl)pteridine], no more than 50 nM.
